Measurements taken from PubChem BioAssay (NCI).
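Where inhibition never reached the appropriate level, the endpoint shown equals the highest concentration tested. Otherwise, values were interpolated linearly from a five-concentration, 48-hour dose response in 96-well plates. Abbreviation: GI50, concentration required for 50% inhibition of growth. Definition used: TGI = concentration required for complete inhibition of growth.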

Experiments:
Assay in all cases: NCI anticancer screen, dose series, 48 h
[1] = test system: K-562 leukemia
[2] = test system: NCI/ADR-RES ovarian
[3] = test system: SK-MEL-2 melanoma
[4] = test system: SF-268 CNS
[5] = test system: MALME-3M melanoma
[6] = test system: KM12 colon
[7] = test system: HOP-92 NSCLC
[8] = test system: HT29 colon
[9] = test system: SNB-19 CNS
[10] = test system: HOP-62 NSCLC
[11] = test system: LOX IMVI melanoma
[12] = test system: BT-549 breast
[13] = test system: OVCAR-5 ovarian
[14] = test system: HCT-15 colon
[15] = test system: UO-31 renal
[16] = test system: HS 578T breast
[17] = test system: HCC-2998 colon
[18] = test system: MCF7 breast
[19] = test system: NCI-H460 lung
[20] = test system: PC-3 prostate
[21] = test system: 786-0 renal
[22] = test system: COLO 205 colon
[23] = test system: SW-620 colon
[24] = test system: A498 renal
[25] = test system: NCI-H23 lung
[26] = test system: CAKI-1 renal
[27] = test system: RXF 393 renal
[28] = test system: MOLT-4 leukemia
[29] = test system: ACHN renal
[30] = test system: A549 NSCLC
[31] = test system: NCI-H226 lung
[32] = test system: EKVX NSCLC
[33] = test system: TK-10 renal
[34] = test system: SK-OV-3 ovarian
[35] = test system: OVCAR-4 ovarian
[36] = test system: OVCAR-3 ovarian
[37] = test system: SF-539 CNS
[38] = test system: UACC-62 melanoma
[39] = test system: SR leukemia
[40] = test system: MDA-MB-231 breast
[41] = test system: DU-145 prostate
[42] = test system: CCRF-CEM leukemia
[43] = test system: NCI-H522 lung
[44] = test system: IGROV1 ovarian
[45] = test system: HCT-116 colon
[46] = test system: RPMI-8226 leukemia
[47] = test system: U251 CNS
[48] = test system: OVCAR-8 ovarian
[49] = test system: SF-295 CNS
[50] = test system: SK-MEL-5 melanoma
[51] = test system: M14 melanoma
[52] = test system: SNB-75 CNS
[53] = test system: HL-60(TB) leukemia
[54] = test system: SN12C renal

## COC(=O)[C@@H](C)C[C@H](Cc1ccccc1)NC(=O)c1nc([C@@H](C[C@H](C(C)C)N(C)C(=O)[C@@H](NC(=O)[C@H]2CCCCN2C)C(C)C)OC(C)=O)sc1C(C)C
[1]
  GI50: < 3.33 nM
  TGI: 5430 nM
[2]
  GI50: 216 nM
  TGI: > 7800 nM
[3]
  GI50: 5.03 nM
  TGI: 5730 nM
[4]
  GI50: 18.4 nM
  TGI: 7720 nM
[5]
  GI50: 42.4 nM
  TGI: 5810 nM
[6]
  GI50: < 3.33 nM
  TGI: 4200 nM
[7]
  GI50: 219 nM
  TGI: > 21600 nM
[8]
  GI50: < 3.33 nM
  TGI: 583 nM
[9]
  GI50: < 3.33 nM
  TGI: > 33300 nM
[10]
  GI50: 12.9 nM
  TGI: 10400 nM
[11]
  GI50: 7.91 nM
  TGI: 3930 nM
[12]
  GI50: < 3.33 nM
  TGI: 83.7 nM
[13]
  GI50: 13.6 nM
  TGI: 16000 nM
[14]
  GI50: 33.5 nM
  TGI: 4430 nM
[15]
  GI50: 15.4 nM
  TGI: 5370 nM
[16]
  GI50: 5.03 nM
  TGI: 1340 nM
[17]
  GI50: < 3.33 nM
  TGI: 1440 nM
[18]
  GI50: < 3.33 nM
  TGI: > 25600 nM
[19]
  GI50: 4.5 nM
  TGI: 3520 nM
[20]
  GI50: < 3.33 nM
  TGI: > 33300 nM
[21]
  GI50: < 3.33 nM
  TGI: 1060 nM
[22]
  GI50: 5.22 nM
  TGI: 40.1 nM
[23]
  GI50: < 3.33 nM
  TGI: > 25700 nM
[24]
  GI50: < 3.33 nM
  TGI: 7.76 nM
[25]
  GI50: 9.65 nM
  TGI: 16100 nM
[26]
  GI50: 4.83 nM
  TGI: 5530 nM
[27]
  GI50: < 3.33 nM
  TGI: 7780 nM
[28]
  GI50: 13.9 nM
  TGI: 14500 nM
[29]
  GI50: < 3.33 nM
  TGI: 7060 nM
[30]
  GI50: 18.7 nM
  TGI: 15700 nM
[31]
  GI50: 12.2 nM
  TGI: 1370 nM
[32]
  GI50: 13.5 nM
  TGI: > 33300 nM
[33]
  GI50: 117 nM
  TGI: 14400 nM
[34]
  GI50: < 3.33 nM
  TGI: 33100 nM
[35]
  GI50: 10.3 nM
  TGI: > 33300 nM
[36]
  GI50: < 3.33 nM
  TGI: 70.3 nM
[37]
  GI50: 7 nM
  TGI: 24.2 nM
[38]
  GI50: < 3.33 nM
  TGI: 32600 nM
[39]
  GI50: < 3.33 nM
  TGI: > 15000 nM
[40]
  GI50: 9.02 nM
  TGI: 2200 nM
[41]
  GI50: < 3.33 nM
  TGI: 434 nM
[42]
  GI50: 7.93 nM
  TGI: > 33300 nM
[43]
  GI50: < 3.33 nM
  TGI: 55 nM
[44]
  GI50: < 3.33 nM
  TGI: > 11900 nM
[45]
  GI50: < 3.33 nM
  TGI: 476 nM
[46]
  GI50: < 3.33 nM
  TGI: 6960 nM
[47]
  GI50: 12 nM
  TGI: 8510 nM
[48]
  GI50: 7.92 nM
  TGI: 8620 nM
[49]
  GI50: < 3.33 nM
  TGI: 276 nM
[50]
  GI50: < 3.33 nM
  TGI: 44.9 nM
[51]
  GI50: 3.38 nM
  TGI: 12.7 nM
[52]
  GI50: 3.88 nM
  TGI: 9380 nM
[53]
  GI50: < 3.33 nM
  TGI: < 3.33 nM
[54]
  GI50: 7.65 nM
  TGI: 4510 nM
